# Reference: US20040248915A1 (priority 2003, published 2004)
# Several values for one entry are separate records, joined by “and”; a condition that tells them apart may be missing. Equal entries are not always repeated. Where two headings read alike, the source gives them in different places.
# Legend:
# [1] = cited from earlier work; for recommended doses: DLT neutropenia and skin rash
# [2] = tested on: HT-29 human colorectal carcinoma cell line; assay: MTT colometric assay; assay type: cell-based; conditions: for GI50: Homo sapiens
# Procedure: Two different methods were used, the MTT colometric assay and the clonogenic assay. a)MTT colometric assay: HT-29 cells were plated at 2.5×10^3 cells/well in a 96-well tissue culture plate and allowed to attach overnight. […] After the incubation period with the drug, cells were washed and fresh drug-free medium added. On day 3, cellular proliferation was evaluated by the tetrazolium dye assay.
# nucleoside transporters = conditions: membrane permeation not mediated by nucleoside transporters; cited from earlier work
# [3] = tested on: relapsed acute myeloid leukemia (AML); conditions: in vivo
# [4] = tested on: HT-29 human colorectal carcinoma cell line; assay: Clonogenic assay; assay type: cell-based; conditions: HT-29 clonal growth; for IC50: Homo sapiens
# Procedure: Two different methods were used, the MTT colometric assay and the clonogenic assay. b)Clonogenic assay: HT-29 cells were plated on 6-well flat-bottomed plates (200-400 cells) and allowed to attach overnight. […] After the incubation period with the drug, cells were washed and fresh drug-free medium added. On day 10, cells were exposed to Crystal violet stain.
# [5] = tested on: relapsed acute myeloid leukemia (AML); assay: Phase I continuous infusion in relapsed AML: toxicity and antileukemic activity
# in vivo [6] = conditions: nude, mouse, 10.6 mg/kg
# [7] = bolus administration
# [8] = rats, 10 mg/kg injection; cited from earlier work
# [9] = human, in vivo
# in vivo [10] = conditions: female, mouse
# Procedure: Antitumor efficacy studies: In vivo efficacy studies were conducted using the HT-29 human colorectal cancer cells grown as xenografts in nude mice. Female athymic CD-1(nu/nu) mice were injected s.c. with 2×10^6 human colon HT-29 tumor cells. Tumor bearing animals were randomised (10 to 15 per group) and treatment started when tumor volumes reached 80 to 120 mm^3 (days 6 to 9; depending on the study). Tumor measurements, taken by callipers twice weekly, were converted to tumor volumes (in mm^3) using the standard formula, [width (mm)]^2×length (mm)×0.52. […] The pumps were implanted s.c. under sterile conditions at the site opposite to the tumor. These pumps (internal volume, 200 μl) continuously deliver test agent at a rate of 1 μl/h for 200 h (8.3 days total). Pumps were removed after 1, 3, 5 or 6 days, thus insuring continuous delivery of test agent over the course of the experiment. […] To monitor the drug-associated toxicity, mice were weighed at least twice a week and daily inspected for observable clinical signs. Statistical analysis was performed by ANOVA (ANalysis Of VAriance) or by Student's t test. Differences were considered to be significant at P<0.05.
# [11] = mice, bolus i.v. 20 mg/kg, cited from earlier work
# advanced solid tumors = assay: Phase I continuous infusion in advanced solid tumors: toxicity; assay type: in vivo, human
# Procedure: This is a dose and infusion length finding study to achieve a minimum steady-state plasma concentration of 21 ng/mL (0.1 μM) for 72-120 hr. The starting dose of 3 mg/m^2/d was determined from PK simulation modeling using data obtained from Phase I studies (30-minute infusions). The starting infusion duration was 48 hr with escalation to 72 hr, 96 hr and 120 hr in cohorts of 3-6 patients.
# In the results evaluated to date, 12 adults with refractory solid tumors have been treated. The first cohort (4 patients) received drug for 48 h (total dose 6 mg/m^2) with no DLT. The second cohort of patients was treated for 72 hr (total 9 mg/m^2). […] The 2 patients with DLT had the highest plasma concentrations. Enrollment is ongoing at 2.25 mg/m^2/d for 96 h (total 9 mg/m^2).
# [12] = tested on: HT-29 human colorectal cancer cells grown as xenografts in nude mice; assay: Antitumor efficacy studies in human xenografts; assay type: in vivo; conditions: for day from which tumor regressions were observed: 6-day infusion; for inhibition of tumor growth: 53-63 mg/kg
# Procedure: Antitumor efficacy studies: In vivo efficacy studies were conducted using the HT-29 human colorectal cancer cells grown as xenografts in nude mice. Female athymic CD-1(nu/nu) mice were injected s.c. with 2×10^6 human colon HT-29 tumor cells. Tumor bearing animals were randomised (10 to 15 per group) and treatment started when tumor volumes reached 80 to 120 mm^3 (days 6 to 9; depending on the study). Tumor measurements, taken by callipers twice weekly, were converted to tumor volumes (in mm^3) using the standard formula, [width (mm)]^2×length (mm)×0.52. […] The pumps were implanted s.c. under sterile conditions at the site opposite to the tumor. These pumps (internal volume, 200 μl) continuously deliver test agent at a rate of 1 μl/h for 200 h (8.3 days total). Pumps were removed after 1, 3, 5 or 6 days, thus insuring continuous delivery of test agent over the course of the experiment. […] Compound efficacy was assessed at the end of the study by percentage of T/C defined as the mean treated tumor volume/mean control tumor volume×100%, with a T/C of about 40% or less being indicative of antitumor activity (J. Plowman et al., Human tumor xenograft models in NCI drug development in Teicher BA (ed) “Anticancer Drug Development Guide: Preclinical screening, clinical trials, and approval”. Humana Press Inc., Totowa, N.J. 1997;101-125). To monitor the drug-associated toxicity, mice were weighed at least twice a week and daily inspected for observable clinical signs. Statistical analysis was performed by ANOVA (ANalysis Of VAriance) or by Student's t test. Differences were considered to be significant at P<0.05.
# Once we had established the optimum dose range (activity and well tolerated toxicity), a second study was performed to establish the time necessary to obtain optimum antitumor efficacy. This study was performed using 5, 10 and 20 mg/ml infused over 1, 3 and 5 days, when the tumors had reached 85 mm^3 (day 6).
# Bolus administration was given by intravenous injection in the tail vein (10 ml/kg).
# cytidine deaminase (CDA) = cytidine deaminase (CDA) (Homo sapiens, UniProt P32320); conditions: cited from earlier work
# [13] = design: species or system mice; conditions: athymic CD-1 (nu/nu) nude, mouse, in vivo
# Procedure: Blood was centrifuged at 10,000 g for 10 minutes and plasma was collected and frozen at −20° C. until further analysis. An aliquot of mouse plasma (100 μl) was precipitated with 300 μl of acetonitrile containing 3TC® (Shire BioChem) as internal standard. After centrifugation at 3,000 ×g for 5 minutes, 300 μl of supernatant was collected and evaporated to dryness under a gentle stream of nitrogen. The residue was then reconstituted with 100 μl of deionized water. […] The chromatography was achieved on a Luna C18 column (150×2 mm, 5 μm, Phenomenix, Torrance, Calif.) with a flow rate of 0.25 ml/min. The aqueous mobile phase, consisting of 10 mM ammonium acetate buffer, pH6.8, was held for 5 minutes and followed by a linear gradient of 0-50% acetonitrile over 8 minutes. Sample analysis was performed on a LC/MS/MS (TSQ7000, Thermo Finnigan, San Jose, Calif.) equipped with electrospray source.
# Chain of cytidine deaminase (CDA) (P32320 whole entry, species assumed): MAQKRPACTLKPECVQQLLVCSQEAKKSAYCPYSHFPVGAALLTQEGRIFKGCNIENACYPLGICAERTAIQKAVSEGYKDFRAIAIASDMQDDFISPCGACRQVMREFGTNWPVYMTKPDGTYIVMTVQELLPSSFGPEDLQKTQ
smiles,measurement,setting,value
"Nc1ccn([C@@H]2CO[C@H](CO)O2)c(=O)n1 [troxacitabine, (−)-β-L-Dioxolane-Cytidine]",drug exposure above or equal to 0.4 μM,[1]; bolus administration,19.3 h
same,Cmax plasmatic,"[1]; humans, 1.5 and 1.2 mg/m^2/d, first day",110 to 140 ng/mL
same,time to steady state plasma concentration,"[1]; humans, 5 half-lives (5×12 hrs)",60 h
same,recommended doses,"[1]; humans, 30-minute infusion every 21 days",12.5 mg/m^2 and 10 mg/m^2
same,recommended doses,"[1]; humans, 30-minute infusion on 5 consecutive days every 4 weeks",1.5 mg/m^2/d and 1.2 mg/m^2/d
same,plasma concentrations 5 minutes after drug administration,"[1]; humans, administered clinical bolus doses",0.6 to 4 µM
same,drug concentration less than 30 minutes after the end of infusion,"[1]; humans, i.v. 10 mg/m^2",less than 1 μM
same,elimination t1/2,"[1]; humans, i.v. 10 mg/m^2",13 h
same,time drug concentration remained above 0.1 μM,"[1]; humans, i.v. 10 mg/m^2",approximately 12 hours
same,maximum tolerated dose in humans,[1]; i.v. administration,10 mg/m^2
same,Cmax,"[1]; read-out: Cmax plasmatic, humans, 1.5 and 1.2 mg/m^2/d, first day",0.52 to 0.66 µM
same,Cmax,"[1]; read-out: plasma Cmax, humans, i.v. 10 mg/m^2",4.1 µM
same,potency of 72-hour versus 1 hr exposure,"[2]; HT-29, MTT",265 fold
same,GI50,"[2]; HT-29, 24 h, HT-29, 24 hr drug exposure",5 µM
same,GI50,"[2]; HT-29, 72 h, HT-29, 72 hr drug exposure",1 µM
same,GI50,"[2]; HT-29, HT-29, 1 hr drug exposure, read on day 3",265 µM
same,GI50,"[2]; HT-29, HT-29, 4 hr drug exposure, read on day 3",46 µM
same,body weight loss,"50 mg/ml, 3-5 days following initiation of treatment",≤ 20%
same,maximum tolerated dose (MTD),"pump concentration, continuous infusion 6 days, nude mice",50 mg/mL
same,major route of cellular uptake,nucleoside transporters,passive diffusion
same,hand-foot syndrome,[3]; human,Grade 1 and 2 hand-foot syndrome was also observed at all dose levels
same,"dose-limiting Grade 3 stomatitis, patients","[3]; human, 6 days",2 of 4
same,"dose-limiting stomatitis, patients",[3],Two of the four
same,skin rash,[3],generalized mild to moderate skin rash was observed at all dose levels
same,change in potency when incubation time increased from 72 hr to 144 hr,[4],No further increase in potency
same,difference between IC50 values following 24- and 72 hr exposures,[4],5 fold
same,IC50,[4]; 24 hr exposure,2.2 µM
same,IC50,[4]; 72 hr exposure,0.4 µM
same,"bone marrow aplasia, patients",[5]; AML patients who received 40.4-60.6 mg/m^2,10 of 17
same,higher cumulative doses achieved than by bolus administration,"[5]; AML patients, continuous infusion",25%
same,recommended dose,"[5]; AML patients, continuous infusion administered over five days",50.5 mg/m^2
same,bone marrow hypoplasia/aplasia,"[5]; first 7 AML patients, cumulative doses ≦30.3 mg/m^2",not seen
same,patients who achieved remissions,[5]; first 24 AML patients treated,4 patients
same,AUC at 5 days,in vivo [6],18800 ng·h/mL
same,"tolerated drug systemic concentrations, mice compared with humans",[7],over 20 fold
same,"tolerated exposures, mice compared with humans",[7],over 6 fold
same,Cmax,[8],≥ 100 µM
same,drug exposure above or equal to 0.4 μM,[9],120 h
same,interpatient variation in observed concentrations at each protocol time-point,[9],2-to 3 fold
same,MTD at 6 days,in vivo [10],45 to 50 mg/kg/day
same,Cmax,"[11]; at 2 minutes, read-out: plasma Cmax",≥ 100 µM
same,elimination t1/2,[11],0.267 h
same,plasma drug concentration by 60 minutes,[11],4.5 µM
same,main non-hematological toxicities,"advanced solid tumors; solid tumor patients, continuous infusion",mild to moderate skin rash
same,DLT,"advanced solid tumors; solid tumors, 2 mg/m^2/d over 3 days (total 6 mg/m^2), three patients",no DLTs observed
same,DLT,"advanced solid tumors; solid tumors, 3 mg/m^2/d for 48 h (total 6 mg/m^2), 4 patients",no DLT
same,"DLT's, patients","advanced solid tumors; solid tumors, 3 mg/m^2/d for 72 hr (total 9 mg/m^2), Grade 4 neutropenia, fever, Grade 3 thrombocytopenia",2 of the 5
same,T/C,"[12]; 0.5 mg/ml pump, continuous infusion 6 days, day 31",79%
same,T/C,"[12]; 5 mg/ml pump, continuous infusion 6 days, day 31",42%
same,antitumor activity of infusion compared with daily bolus,[12]; 10 mg/ml infusion over 6 days vs 10.6 mg/kg daily for 5 consecutive days,same antitumor activity
same,T/C,"[12]; 10 mg/ml pump, continuous infusion 6 days, day 31",22%
same,day from which tumor regressions were observed,[12]; 10 mg/ml,29 days
same,tumor course,[12]; 20 mg/ml infused over 3 days,tumor stasis during the first week after treatment followed by tumor regrowth
same,T/C,"[12]; 20 mg/ml infused over 3 days, end of study",44%
same,tumor regressions,"[12]; 20 mg/ml, 5-day infusion",Tumor regressions were observed from day 18 till day 28 followed by regrowth
same,T/C,"[12]; 20 mg/ml, 5-day infusion, end of study",27%
same,T/C,"[12]; 50 mg/ml pump, continuous infusion 6 days, day 31",11%
same,day from which tumor regressions were observed,[12]; 50 mg/ml,21 days
same,inhibition of tumor growth,[12]; 3-day administration regimens (q7d×3 or 3-day infusions),intermediate
same,inhibition of tumor growth,[12]; 5-6 day regimens (q1d×5 or 6-day infusions),optimal
same,effect on tumor growth,"[12]; one day infusion (24 h), 5, 10 and 20 mg/ml",no effect
same,antitumor activity,[12]; single bolus i.v. injection 63 mg/kg,low activity
same,deamination by cytidine deaminase (CDA),cytidine deaminase (CDA),resistant to deamination
same,peak plasma concentrations with prolonged infusion,[13],0.7 to 1.6 µM
